Data: paper PMC4802219, “Improved dialytic removal of protein-bound uraemic toxins with use of albumin binding competitors: an in vitro human whole blood study” (Scientific Reports, 2016)

Key:
[1] = set-up: method as in PMID 973966, PMID 3514052; conditions: cited from earlier work
albumin [2] = molecular target: T1, albumin (Homo sapiens, UniProt P02768); assay: Static RED assay of PBUT displacement by binding competitors in uraemic plasma; conditions: for displacement of IS and PCS: RED assay (Fig. 1); for increase of free fraction of IS / increase of free fraction of PCS: displacer 1 mmol/l, RED 4 h 37 °C, compared to PBS
T1 construct: from tissue; host or cells: human uraemic plasma
Method: We evaluated the albumin binding of uraemic toxins and their interaction with displacers in human uraemic plasma utilizing the RED device. Candidate displacers were mixed with uraemic plasma before incubation. The test mixture (300 μl) was added into the sample chamber, while the buffer chamber was filled with 500 μl PBS. After 4 hours of incubation (37 °C, 250 rpm), samples were collected from both chambers for HPLC analysis. The concentration of all displacers and negative control (antipyrine) in the incubations was 1 mmol/l. For furosemide, incubations at final concentration of 0.18 mmol/l were also included since this is the clinically relevant concentration for intravenous administration.
(§1) Blood samples were centrifuged at 13200 rpm for 3 mins. The plasma layer was collected and stored at −80 °C. Plasma samples (50 μl) were precipitated with 100 μl of ice-cold acetonitrile to precipitate the proteins. The samples were then vortexed thoroughly and centrifuged at 3000 rpm for 10 minutes. The supernatant, containing the uraemic toxins and displacers, was collected and further diluted 1:1 with deionized water before HPLC injection. The dialysate samples (100 μl) were diluted with 100 μl water before HPLC injection.
(§2) Measurements were calibrated with standard curves for all analytes, and were linear over the concentration range of the experiments. Measurements were performed on an Agilent 1100 system (Agilent Technologies, Dover, DE, USA) equipped with a C18 column (Kinetex 5 μm C18 100 Å, LC Column 150 × 4.6 mm, Phenomenex, Torrance, CA, USA). Mobile phase A: ammonium formate, 20 mmol/l, pH 4. Mobile phase B: acetonitrile. The gradient profile for mobile phase B was: 0–2 min, 15%; 11–14 min, 100%; 14.2–16 min, 15%; and the flow rate gradient was 0–11.2 min, 0.4 ml/min; 11.2–16 min 0.5 ml/min. […] HIPA and furosemide were detected at 230 nm with the UV-Vis detector. The injection volume was 5 μl.
For PBUT displacement in RED assays, Dunnett’s post-analysis comparisons to PBS were performed by one way ANOVA using GraphPad Prism (GraphPad Software, La Jolla, CA).

albumin [3] = molecular target: T1, albumin; assay: Static RED assay of IS displacement by ibuprofen with or without furosemide in normal human plasma; format: binding; conditions: normal human plasma spiked with IS 150 μmol/l, ibuprofen 0 to 931 μmol/l, furosemide 0.18 mmol/l (Fig. 3)
albumin [4] = molecular target: T1, albumin; assay: Single-pass haemodialysis model with uraemic human whole blood and pre-dialyzer displacer infusion
Method: All experiments were carried out in triplicate.
as §1
as §2, with “acetonitrile.” for “acetonitrile. The gradient profile for mobile phase B was: 0–2 min, 15%; 11–14 min, 100%; 14.2–16 min, 15%; and the flow rate gradient was 0–11.2 min, 0.4 ml/min; 11.2–16 min 0.5 ml/min.”

[5] = intervention phase vs baseline phase, P < 0.0001

T1 sequence (P02768 25-609): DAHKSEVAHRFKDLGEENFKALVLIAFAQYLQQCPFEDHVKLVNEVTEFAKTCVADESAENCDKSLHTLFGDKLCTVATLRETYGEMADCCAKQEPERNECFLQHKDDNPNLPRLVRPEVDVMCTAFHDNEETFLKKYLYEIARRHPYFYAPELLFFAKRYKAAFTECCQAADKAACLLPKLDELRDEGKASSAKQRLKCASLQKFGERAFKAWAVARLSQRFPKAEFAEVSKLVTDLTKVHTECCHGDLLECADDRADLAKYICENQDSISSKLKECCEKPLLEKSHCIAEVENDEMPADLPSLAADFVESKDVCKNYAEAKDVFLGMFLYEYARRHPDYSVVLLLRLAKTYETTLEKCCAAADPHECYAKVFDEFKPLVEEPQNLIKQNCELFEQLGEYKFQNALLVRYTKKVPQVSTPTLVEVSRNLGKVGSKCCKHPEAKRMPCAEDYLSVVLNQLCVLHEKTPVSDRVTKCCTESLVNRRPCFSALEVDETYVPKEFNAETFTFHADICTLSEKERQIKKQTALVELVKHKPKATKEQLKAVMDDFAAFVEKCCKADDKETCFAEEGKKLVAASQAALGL

Row | SMILES | protein binding capability [1] | change in uraemic toxin protein binding (albumin [2]; uraemic plasma, negative control 1 mmol/l (Figs 1 and 2)) | effect on IS displacement by ibuprofen when given simultaneously (albumin [3]) | increase in the free fraction of IS (albumin [2]; furosemide alone at 0.18 mmol/l (Fig. 1)) | displacement of IS and PCS (albumin [2]; uraemic plasma) | displacement of HIPA (albumin [2]; uraemic plasma, RED assay (Fig. 2)) | increase of free fraction of IS (albumin [2]; uraemic plasma) [fold] | increase of free fraction of PCS (albumin [2]; uraemic plasma) [fold] | HIPA removal (albumin [4]; human whole blood, HIPA 400 μmol/l (1 mmol/l with tryptophan) (Fig. 6)) | fractional removal of IAA during displacer infusion (albumin [4]; human whole blood, IAA 15 μmol/l, Qb 12.5 ml/min, Qd 25 ml/min, mean ± SEM, N = 3) [%] | fractional removal of IS during displacer infusion (albumin [4]; human whole blood, IS 150 μmol/l, Qb 12.5 ml/min, Qd 25 ml/min, mean ± SEM, N = 3) [%] | increase of IAA removal (albumin [4]; [5]) [fold] | increase of IS removal (albumin [4]; [5]) [fold]
1 | Cc1cc(=O)n(-c2ccccc2)n1C [antipyrine] | lacks protein binding capability | did not lead to a significant change |  |  |  |  |  |  |  |  |  |  | 
2 | NS(=O)(=O)c1cc(C(=O)O)c(NCc2ccco2)cc1Cl [furosemide] |  |  | boost the IS displacement effect of ibuprofen | did not induce a significant increase | limited displacement effect | significant displacement | ~1.3 | ~1.3 |  |  |  |  | 
3 | N[C@@H](Cc1c[nH]c2ccccc12)C(=O)O [tryptophan, L-Tryptophan] |  |  |  |  | more efficiently than HIPA |  | ~2 | ~2 | virtually unaffected | 27.1 ± 0.3 | 10.5 ± 0.1 | 1.3 | 1.4
